Measured values published in ChEMBL document CHEMBL2074308, “5'-Amino acid esters of antiviral nucleosides, acyclovir, and AZT are absorbed by the intestinal PEPT1 peptide transporter” (Pharm Res, 1998).

B1: Solute carrier family 15 member 1 (Homo sapiens), P46059 (protein)
chain: MGMSKSHSFFGYPLSIFFIVVNEFCERFSYYGMRAILILYFTNFISWDDNLSTAIYHTFVALCYLTPILGALIADSWLGKFKTIVSLSIVYTIGQAVTSVSSINDLTDHNHDGTPDSLPVHVVLSLIGLALIALGTGGIKPCVSAFGGDQFEEGQEKQRNRFFSIFYLAINAGSLLSTIITPMLRVQQCGIHSKQACYPLAFGVPAALMAVALIVFVLGSGMYKKFKPQGNIMGKVAKCIGFAIKNRFRHRSKAFPKREHWLDWAKEKYDERLISQIKMVTRVMFLYIPLPMFWALFDQQGSRWTLQATTMSGKIGALEIQPDQMQTVNAILIVIMVPIFDAVLYPLIAKCGFNFTSLKKMAVGMVLASMAFVVAAIVQVEIDKTLPVFPKGNEVQIKVLNIGNNTMNISLPGEMVTLGPMSQTNAFMTFDVNKLTRINISSPGSPVTAVTDDFKQGQRHTLLVWAPNHYQVVKDGLNQKPEKGENGIRFVNTFNELITITMSGKVYANISSYNASTYQFFPSGIKGFTISSTEIPPQCQPNFNTFYLEFGSAYTYIVQRKNDSCPEVKVFEDISANTVNMALQIPQYFLLTCGEVVFSVTGLEFSYSQAPSNMKSVLQAGWLLTVAVGNIIVLIVAGAGQFSKQWAEYILFAALLLVVCVIFAIMARFYTYINPAEIEAQFDEDEKKNRLEKSNPYFMSGANSQKQM

Assays:
[1] = biological target: T1, Solute carrier family 15 member 1 (Homo sapiens, UniProt P46059); experiment: TP_TRANSPORTER: inhibition of Gly-Sar uptake (Gly-Sar: 20 uM) in PEPT1-expressing CHO cells; format: functional, cell-based
T1 sequence (P46059 whole entry): B1 chain

[2] = biological target: T1, Solute carrier family 15 member 1; experiment: TP_TRANSPORTER: inhibition of Gly-Sar uptake, D-form (Gly-Sar: 20 uM) in PEPT1-expressing CHO cells; format: functional, cell-based
[3] = biological target: T1, Solute carrier family 15 member 1; experiment: TP_TRANSPORTER: inhibition of Gly-Sar uptake, L-form (Gly-Sar: 20 uM) in PEPT1-expressing CHO cells; format: functional, cell-based
[4] = substrate: CC(C)[C@H](N)C(=O)OCCOCn1cnc2c(=O)nc(N)[nH]c21; conditions: Caco-2
Description: TP_TRANSPORTER: transepithelial transport (apical to basal), L-form in Caco-2 cells

Row | Molecule | IC50 [1] | IC50 [2] | IC50 [3] | Km [4]
1 | CC1=C(C(=O)O)N2C(=O)[C@@H](NC(=O)[C@H](N)C3=CCC=CC3)[C@H]2SC1 [CEPHRADINE] | 15000 µM | – | – | –
2 | NCC(=O)OCCOCn1cnc2c(=O)[nH]c(N)nc21 [GLYCYL ESTER OF ACYCLOVIR] | 1400 µM | – | – | –
3 | CC(C)[C@H](N)C(=O)OCCOCn1cnc2c(=O)[nH]c(N)nc21 [VALACYCLOVIR] | 400 µM | 3400 µM | 1100 µM | –
4 | CCOC(=O)[C@H](CCc1ccccc1)N[C@@H](C)C(=O)N1CCC[C@H]1C(=O)O [ENALAPRIL] | 15000 µM | – | – | –
5 | B1 | – | – | – | 292 µM
